In ChEMBL document CHEMBL3137381, “MMV Box Onchocerca lienalis screening set” one finds Motility data, which are given here for 40 compounds.

What all share (format): functional
Experiment [1] has as its system Onchocerca lienalis. Kind of experiment: MMV: Percent motility assay at a compound concentration of 7.8e-7 M. Activity score legend: 3: Active, 2: Moderately active; 1: Inactive, 0: Toxic. The settings on record: at 0.78 µM.
Experiment [2] relates to Onchocerca lienalis. The experiment in a line: MMV: Percent motility assay at a compound concentration of 1.25e-5 M. Activity score legend: 3: Active, 2: Moderately active; 1: Inactive, 0: Toxic. To be noted: at 12.5 µM.
Experiment [3] relates to Onchocerca lienalis. The experiment in a line: MMV: Percent motility assay at a compound concentration of 1.9e-7 M. Activity score legend: 3: Active, 2: Moderately active; 1: Inactive, 0: Toxic. The settings on record: at 0.19 µM.
For experiment [4], the system named is Onchocerca lienalis. The experiment in a line: MMV: Percent motility assay at a compound concentration of 3.1e-6 M. Activity score legend: 3: Active, 2: Moderately active; 1: Inactive, 0: Toxic. The settings on record: at 3.1 µM.

With `O=C(Nc1ccc(Cl)c(Cl)c1)Nc1ccc(Cl)c(Cl)c1`, the Motility with Onchocerca lienalis [1], with Onchocerca lienalis [2], in the experiment with Onchocerca lienalis [3] and with Onchocerca lienalis [4] was 100% in each case.
As to `N=c1n(CCN2CCCCC2)c2ccccc2n1CC(=O)c1ccc(Cl)c(Cl)c1`, the Motility in the experiment with Onchocerca lienalis [1], in the experiment with Onchocerca lienalis [2], in the experiment with Onchocerca lienalis [3] and with Onchocerca lienalis [4] was 100% each time.
With `COc1ccc(-c2nc(N3CCN(C(=O)C4CCCCC4)CC3)c3c4c(sc3n2)CCCC4)cc1`, the Motility with Onchocerca lienalis [1], in the experiment with Onchocerca lienalis [2], in the experiment with Onchocerca lienalis [3] and in the experiment on Onchocerca lienalis [4] was 100% in each case.
For `Cc1sc(NC(=O)c2ccco2)c(C(c2cccnc2)N2CCC(Cc3ccccc3)CC2)c1C` (stereo not given), the Motility with Onchocerca lienalis [1], with Onchocerca lienalis [2], with Onchocerca lienalis [3] and in the experiment with Onchocerca lienalis [4] was 100% throughout.
Turning to `COc1cc(C(=O)Nc2nc3c(cc4c5c(cccc53)CC4)s2)cc(OC)c1OC`, the Motility with Onchocerca lienalis [1], with Onchocerca lienalis [2], in the experiment on Onchocerca lienalis [3] and in the experiment with Onchocerca lienalis [4] was 100% each time.
In the case of `COc1ccc(CCN2C(=O)c3[nH]nc(-c4cc(Cl)c(C)cc4O)c3C2c2ccccc2F)cc1` (stereo not given), the Motility in the experiment on Onchocerca lienalis [1], in the experiment on Onchocerca lienalis [2], in the experiment on Onchocerca lienalis [3] and in the experiment on Onchocerca lienalis [4] was 100% in each case.
For `O=C(NNc1cc(N2CCCC2)nc(N2CCCC2)n1)c1ccccc1`, the Motility in the experiment on Onchocerca lienalis [1], in the experiment on Onchocerca lienalis [2], in the experiment with Onchocerca lienalis [3] and in the experiment on Onchocerca lienalis [4] was 100% each time.
Take `COC(=O)c1ccc(Cl)c2c1C1C=CCC1C(c1cccc3ccccc13)N2` (stereo not given): the Motility in the experiment with Onchocerca lienalis [1], with Onchocerca lienalis [2], with Onchocerca lienalis [3] and in the experiment with Onchocerca lienalis [4] was 100% throughout.
On to `O=C(CCc1ccccc1)c1ccccc1OCC(O)CN1CCCCC1` (stereo not given), for which the Motility with Onchocerca lienalis [1], in the experiment with Onchocerca lienalis [2], in the experiment with Onchocerca lienalis [3] and in the experiment on Onchocerca lienalis [4] was 100% throughout.
With `OC1=C2C(=Nc3ccccc3SC2c2ccccc2)c2ccccc21` (stereo not given), the Motility in the experiment with Onchocerca lienalis [1], with Onchocerca lienalis [2], in the experiment with Onchocerca lienalis [3] and in the experiment with Onchocerca lienalis [4] was 100% throughout.
Turning to `COc1cc(C(=O)Nc2ccc(-c3nc4ccccc4[nH]3)cc2)cc(OC)c1OC`, the Motility with Onchocerca lienalis [1], in the experiment on Onchocerca lienalis [2], in the experiment on Onchocerca lienalis [3] and in the experiment with Onchocerca lienalis [4] was 100% in each case.
Turning to `CCOc1ccc(N2C(N)=NC(N)=NC2(C)C)cc1.Cl`, the Motility in the experiment with Onchocerca lienalis [1], in the experiment with Onchocerca lienalis [2], with Onchocerca lienalis [3] and in the experiment with Onchocerca lienalis [4] was 100% each time.
Regarding `COC(=O)c1ccc(C2C3=C(O)CC(c4ccc(F)cc4)CC3=Nc3ccccc3N2C(=O)c2ccccc2)cc1` (stereo not given), the Motility with Onchocerca lienalis [1], in the experiment with Onchocerca lienalis [2], in the experiment on Onchocerca lienalis [3] and with Onchocerca lienalis [4] was 100% in each case.
In the case of `O=C(CCl)NCCOc1ccc(Cl)cc1Cl`, the Motility in the experiment on Onchocerca lienalis [1], in the experiment on Onchocerca lienalis [2], in the experiment on Onchocerca lienalis [3] and in the experiment with Onchocerca lienalis [4] was 100% throughout.
Take `Oc1ccc(-c2nc(-c3ccc4oc5ccc(-c6[nH]c(-c7ccc(O)cc7)nc6-c6ccccc6)cc5c4c3)c(-c3ccccc3)[nH]2)cc1`: the Motility in the experiment with Onchocerca lienalis [1], in the experiment with Onchocerca lienalis [2], with Onchocerca lienalis [3] and in the experiment on Onchocerca lienalis [4] was 100% each time.
Turning to `CCOc1ccc(CN2CCN(CC(O)COc3ccc(OCC(O)CN4CCN(Cc5ccc(OCC)cc5)CC4)cc3)CC2)cc1` (stereo not given), the Motility in the experiment on Onchocerca lienalis [1], with Onchocerca lienalis [2], in the experiment on Onchocerca lienalis [3] and in the experiment with Onchocerca lienalis [4] was 100% throughout.
As for `CCCCNc1nc(NC(C)(C)C)nc(NC(C)(C)C)n1`, the Motility in the experiment with Onchocerca lienalis [1], with Onchocerca lienalis [2], with Onchocerca lienalis [3] and in the experiment on Onchocerca lienalis [4] was 100% in each case.
As for `COc1ccc(CCn2c(=N)c(C(=O)NCc3cccnc3)cc3c(=O)n4cccc(C)c4nc32)cc1`, the Motility in the experiment on Onchocerca lienalis [1], in the experiment with Onchocerca lienalis [2], in the experiment with Onchocerca lienalis [3] and with Onchocerca lienalis [4] was 100% throughout.
In the case of `CC(=O)c1sc(NC(=O)Nc2ccc(C)cc2C)nc1C`, the Motility in the experiment with Onchocerca lienalis [1], with Onchocerca lienalis [2], with Onchocerca lienalis [3] and in the experiment with Onchocerca lienalis [4] was 100% in each case.
Consider `COc1ccc(Nc2cc(C)nc(NCc3ccccc3)n2)cc1`, for which the Motility in the experiment with Onchocerca lienalis [1] is 100%; in the experiment with Onchocerca lienalis [2] it was 66.66%; with Onchocerca lienalis [3], 100%; with Onchocerca lienalis [4] it was 100%.
`Oc1ccc2ccccc2c1CNc1nc2ccccc2[nH]1`: the Motility in the experiment on Onchocerca lienalis [1], in the experiment with Onchocerca lienalis [2], in the experiment with Onchocerca lienalis [3] and with Onchocerca lienalis [4] was 100% throughout.
In the case of `O=C(Nc1ccc(-c2nc3ccccc3[nH]2)cc1)c1ccc(Cl)c(Cl)c1`, the Motility in the experiment with Onchocerca lienalis [1], in the experiment with Onchocerca lienalis [2], with Onchocerca lienalis [3] and with Onchocerca lienalis [4] was 100% in each case.
`O=C1c2ccc3c4c(ccc(c24)C(=O)N1CCCCO)C(=O)N(CCCCO)C3=O`: the Motility with Onchocerca lienalis [1], in the experiment on Onchocerca lienalis [2], with Onchocerca lienalis [3] and in the experiment on Onchocerca lienalis [4] was 100% throughout.
`Cc1cc(N(C)C)nc(Nc2ccc(NC(=O)Nc3ccccc3)cc2)n1`: the Motility in the experiment on Onchocerca lienalis [1], with Onchocerca lienalis [2], in the experiment on Onchocerca lienalis [3] and with Onchocerca lienalis [4] was 100% throughout.
`COc1ccc(C(=O)C(CCC(CNC(C)(C)C)C(=O)c2ccc(OC)cc2)CNC(C)(C)C)cc1` (stereo not given): the Motility in the experiment on Onchocerca lienalis [1], with Onchocerca lienalis [2], with Onchocerca lienalis [3] and with Onchocerca lienalis [4] was 100% in each case.
Turning to `COc1cc(C(=O)ON=C(N)Cc2cccc3ccccc23)cc(OC)c1OC`, the Motility with Onchocerca lienalis [1], in the experiment with Onchocerca lienalis [2], in the experiment with Onchocerca lienalis [3] and in the experiment with Onchocerca lienalis [4] was 100% throughout.
Regarding `CN1C=C(c2ccc3ccccc3n2)C(c2c[nH]c3ccccc23)c2ccccc21` (stereo not given), the Motility in the experiment on Onchocerca lienalis [1] came out at 100%; in the experiment with Onchocerca lienalis [2], 33.33%; with Onchocerca lienalis [3] it was 100%; in the experiment with Onchocerca lienalis [4] it was 100%.
Consider `Oc1c(C(Nc2ccccn2)c2cccc(Oc3ccccc3)c2)ccc2cccnc12` (stereo not given), for which the Motility in the experiment on Onchocerca lienalis [1] was 100%; with Onchocerca lienalis [2], 6.66%; in the experiment on Onchocerca lienalis [3] it was 100%; in the experiment with Onchocerca lienalis [4], 100%.
`COc1cc(-c2nc(-c3ccccc3)c(-c3ccccc3)[nH]2)cc(OC)c1O`: the Motility in the experiment with Onchocerca lienalis [1], with Onchocerca lienalis [2], in the experiment with Onchocerca lienalis [3] and with Onchocerca lienalis [4] was 100% throughout.
As for `Cc1ccc(Nc2nc(N)c3ccccc3n2)cc1Cl`, the Motility in the experiment with Onchocerca lienalis [1], in the experiment with Onchocerca lienalis [2], with Onchocerca lienalis [3] and in the experiment on Onchocerca lienalis [4] was 100% throughout.
As for `OC(CNC1CCCCC1)Cn1c2ccc(I)cc2c2cc(I)ccc21` (stereo not given), the Motility with Onchocerca lienalis [1], in the experiment on Onchocerca lienalis [2], with Onchocerca lienalis [3] and in the experiment with Onchocerca lienalis [4] was 100% throughout.
With `Br.CCn1c2c(c(=N)c3c1CCC3)CCCC2`, the Motility in the experiment on Onchocerca lienalis [1], in the experiment with Onchocerca lienalis [2], in the experiment with Onchocerca lienalis [3] and in the experiment on Onchocerca lienalis [4] was 100% throughout.
In the case of `COc1cc(CNCCc2ccc(Cl)cc2)cc(OC)c1O`, the Motility in the experiment on Onchocerca lienalis [1], in the experiment with Onchocerca lienalis [2], in the experiment with Onchocerca lienalis [3] and in the experiment with Onchocerca lienalis [4] was 100% each time.
For `Cc1ccc2c(C)nc(Nc3nc(C)cc(-c4ccccc4)n3)nc2c1`, the Motility in the experiment on Onchocerca lienalis [1], in the experiment with Onchocerca lienalis [2], in the experiment with Onchocerca lienalis [3] and with Onchocerca lienalis [4] was 100% throughout.
With `CCOc1ccc(Nc2ccnc3cc(Cl)ccc23)cc1`, the Motility with Onchocerca lienalis [1], in the experiment with Onchocerca lienalis [2], with Onchocerca lienalis [3] and in the experiment on Onchocerca lienalis [4] was 100% each time.
Consider `Oc1ccc(Br)cc1CN1CCN(Cc2ccc(Cl)cc2)CC1`, for which the Motility in the experiment with Onchocerca lienalis [1], with Onchocerca lienalis [2], in the experiment with Onchocerca lienalis [3] and in the experiment on Onchocerca lienalis [4] was 100% in each case.
With `Br.Cc1ccc(C)c(-c2csc(Nc3ccc(C)c(C)c3)n2)c1`, the Motility in the experiment with Onchocerca lienalis [1], in the experiment on Onchocerca lienalis [2], with Onchocerca lienalis [3] and in the experiment on Onchocerca lienalis [4] was 100% in each case.
For `CCCn1c(=N)c(C(=O)NC2CCCCC2)cc2c(=O)n3cccc(C)c3nc21`, the Motility in the experiment on Onchocerca lienalis [1], with Onchocerca lienalis [2], in the experiment on Onchocerca lienalis [3] and in the experiment on Onchocerca lienalis [4] was 100% each time.
On to `CC(C)(C)c1ccc(C2CC3=Nc4ccccc4N(C(=O)c4ccccc4Cl)C(c4ccc(F)cc4)C3=C(O)C2)cc1` (stereo not given), for which the Motility in the experiment with Onchocerca lienalis [1], in the experiment on Onchocerca lienalis [2], in the experiment with Onchocerca lienalis [3] and in the experiment with Onchocerca lienalis [4] was 100% throughout.
With `CN1CCN(c2nc(Nc3ccc(O)cc3)nc3ccccc23)CC1.Cl`, the Motility in the experiment on Onchocerca lienalis [1], with Onchocerca lienalis [2], with Onchocerca lienalis [3] and in the experiment on Onchocerca lienalis [4] was 100% in each case.
